Our source for the IC50 values is US7709482B2, “Polycyclic heteroaryl substituted triazoles useful as Axl inhibitors” (Rigel Pharmaceuticals, Inc., priority 2006, dated 2010).

Broadly, the IC50 is the concentration needed to halve the response being measured.

The target of one assay is T1, Axl (Homo sapiens, UniProt P30530).
T1 construct: endogenous in cells; host or cells: HeLa cells
T1 sequence (P30530 26-894): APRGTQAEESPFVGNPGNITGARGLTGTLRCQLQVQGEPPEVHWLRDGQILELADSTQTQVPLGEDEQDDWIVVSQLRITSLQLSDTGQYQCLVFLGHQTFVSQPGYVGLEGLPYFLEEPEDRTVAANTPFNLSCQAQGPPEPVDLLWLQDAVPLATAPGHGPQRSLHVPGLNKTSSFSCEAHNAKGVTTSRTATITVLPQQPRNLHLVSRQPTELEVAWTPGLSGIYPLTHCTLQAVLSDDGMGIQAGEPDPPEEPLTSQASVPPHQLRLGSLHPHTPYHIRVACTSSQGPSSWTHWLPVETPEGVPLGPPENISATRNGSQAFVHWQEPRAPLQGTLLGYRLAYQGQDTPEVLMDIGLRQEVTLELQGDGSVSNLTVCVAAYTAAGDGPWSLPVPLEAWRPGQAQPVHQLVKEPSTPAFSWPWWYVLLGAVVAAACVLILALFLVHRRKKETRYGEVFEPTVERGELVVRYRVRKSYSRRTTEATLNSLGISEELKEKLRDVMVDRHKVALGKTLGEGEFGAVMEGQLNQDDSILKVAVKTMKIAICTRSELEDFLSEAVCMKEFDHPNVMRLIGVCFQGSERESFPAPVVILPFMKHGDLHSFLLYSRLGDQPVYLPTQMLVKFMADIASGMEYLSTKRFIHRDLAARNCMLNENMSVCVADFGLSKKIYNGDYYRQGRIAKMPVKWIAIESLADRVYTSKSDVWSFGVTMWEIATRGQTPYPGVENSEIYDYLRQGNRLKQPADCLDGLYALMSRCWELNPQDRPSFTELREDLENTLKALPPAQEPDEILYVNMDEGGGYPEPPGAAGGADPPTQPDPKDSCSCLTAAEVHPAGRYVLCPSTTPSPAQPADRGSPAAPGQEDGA
The assay is described as follows: Phospho-Akt In-Cell Western Assay (inhibition of Axl activity after Axl-antibody cross-linking). It counts as cell-based. The settings on record: Hela cells, phospho-Akt chemiluminescence normalized to relative cell number; compounds of formula (Ia), Table 1; read-out: IC50. On the procedure: The compounds of the invention were tested in the following assay for their ability to inhibit Axl activity.
Phospho-Akt In-Cell Western Assay
• Cell culture plate: 96 well assay plate (Corning 3610), white, clear bottom, tissue-culture treated. • Cells: Hela cells. • Starvation medium: For Axl stimulation: 0.5% FCS (fetal calf serum) in DMEM, plus Axl/Fc (extracellular domain of AXL fused to immunoglobulin Fc region) (R&D, 154-AL) 500 ng/mL. • For EGF (epidermal growth factor) stimulation: 0.5% FCS in DMEM (Dulbecco's modified Eagles medium). • Poly-L-Lysine 0.01% solution (the working solution): […], dilute In PBS (phosphate buffered saline). • Axl antibody cross-linking: • 1st: Mouse anti-Axl (R&D, MAB154). • 2nd: Biotin-SP-conjugated AffiniPure goat anti-mouse IgG (H+ L) (Jackson ImmunoResearch #115-065-003). • Fixing buffer: 4% formaldehyde in PBS. • Wash buffer: 0.1% TritonX-100 in PBS. • Quenching buffer: 3% H2O2, 0.1% Azide in wash buffer, Azide and hydrogen peroxide (H2O2) are added fresh. • Blocking buffer: 5% BSA in TBST (tris buffered saline plus 0.1% Tween 20). • Primary antibody: Rabbit anti-human Phospho-Akt antibody (Cell Signaling 9271): 1×250 diluted in blocking buffer. • Secondary antibody: HRP (horse radish peroxidase)-conjugated Goat anti-Rabbit secondary, stock solution: Jackson ImmunoResearch (Goat anti-Rabbit HRP, #111-035-144) 1:1 diluted in glycerol, store at −20° C. The working solution: 1×2000 dilution of stock in blocking buffer. • Chemiluminescent working solution (Pierce, 37030): SuperSignal ELISA (enzyme linked immunosorbant assay) Pico Chemiluminescent substrate. • Crystal Violet solution: Stock: 2.5% Crystal violet in methanol, filtered and kept at ambient temperature. The working solution: dilute the stock 1:20 with PBS immediately before use. • 10% SDS: working solution: 5% SDS (sodium dodecylsulfate), diluted in PBS Methods: Day 1:
A 96 well TC (tissue culture treated) plate was coated with 10 μg/mL poly-L-Lysine at 37° C. for 30 min, washed twice with PBS, and air-dried for 5 minutes before cells were added. Hela cells were seeded at 10,000 cells/well and the cells were starved in 100 μL starvation medium containing Axl/Fc for 24 hrs.
The cells were pre-treated with test compounds by adding 100 μL of 2× test compound to the starvation medium on the cells. The cells were incubated at 37° C. for 1 hr before stimulation.
The resulting mix was warmed to 37° C. 50 μL of 5×Axl 1st/2nd of antibody cluster was added to the cells and the cells were incubated at 37° C. for 5 min.
After 5 minutes stimulation, the plate was flicked to remove medium and the plate was tapped onto paper towels. Formaldehyde (4.0% in PBS, 100 μL) was added to fix the cells and the cells were incubated at ambient temperature for 20 min without shaking.
The cells were washed with a plate washer buffer to remove the formaldehyde solution. The plate was flicked to removed excess wash buffer and tapped onto paper towels. Quenching buffer (100 μL) was added to each well and the cells were incubated at ambient temperature for 20 minutes without shaking.
The cells were washed with a plate washer buffer to remove the quenching buffer. Blocking buffer (100 μL) was added and the cells were incubated at ambient temperature for at least an hour with gentle shaking.
The cells were washed with a plate washer buffer and diluted primary antibody (50 μL) was added to each well (blocking buffer was added to the negative control wells instead). The plates were incubated overnight at 4° C. with gentle shaking.
The wash buffer was removed, diluted secondary antibody (100 μL) was added, and the cells were incubated at ambient temperature for 1 hour with gentle shaking. During the incubation, the chemiluminescent reagent was brought to ambient temperature.
The secondary antibody was removed by washing the cells 1× with wash buffer, 1× with PBS by plate washer.
Turning to `CCCN1CCC2CN(c3ccc(Nc4nc(N)n(-c5cc6c(nn5)-c5ccccc5CCC6)n4)cc3F)CCC21` (stereo not drawn) [Compound 84, 1-(6,7-dihydro-5H-benzo[6,7]cyclohepta[1,2-c]pyridazin-3-yl)-N^3-(3-fluoro-4-(1-propyloctahydro-1H-pyrrolo[3,2-c]pyridine-5-yl)phenyl)-1H-1,2,4-triazole-3,5-diamine], the half-inhibitory concentration (IC50) is less than 1000 nM. Turning to `Cc1cc(Nc2nc(N)n(-c3cc4c(nn3)-c3ccccc3CCC4)n2)ccc1N1CCC(N2CCN(C)CC2)CC1` [Compound 114, 1-(6,7-dihydro-5H-benzo[6,7]cyclohepta[1,2-c]pyridazin-3-yl)-N^3-(3-methyl-4-(4-(N-methylpiperazin-4-yl)piperidin-1-yl)phenyl)-1H-1,2,4-triazole-3,5-diamine], the half-inhibitory concentration (IC50) is less than 1000 nM. For `CC1(C)CCCC(C)(C)N1CCOc1ccc(Nc2nc(N)n(-c3cc4c(nn3)-c3ccccc3CCC4)n2)cc1` [Compound 14, 1-(6,7-dihydro-5H-benzo[6,7]cyclohepta[1,2-c]pyridazin-3-yl)-N^3-(4-(2,2,6,6-tetramethylpiperidin-1-yl)ethoxyphenyl)-1H-1,2,4-triazole-3,5-diamine], the IC50 fell in the range of 1000 to 10000 nM. For the compound `N#Cc1cccc(-c2ccc(Nc3nc(N)n(-c4cc5c(nn4)-c4ccccc4CCC5)n3)cn2)c1` [Compound 96, 1-(6,7-dihydro-5H-benzo[6,7]cyclohepta[1,2-c]pyridazin-3-yl)-N^3-(6-(3-cyanophenyl)pyridine-3-yl)-1H-1,2,4-triazole-3,5-diamine], the IC50 was greater than 20000 nM. Same read-out and setting: next, `CCCN1CC2CN(c3ccc(Nc4nc(N)n(-c5cc6c(nn5)-c5ccccc5CCC6)n4)cc3F)CC2C1` (stereo not drawn) [Compound 72, 1-(6,7-dihydro-5H-benzo[6,7]cyclohepta[1,2-c]pyridazin-3-yl)-N^3-(3-fluoro-4-(5-propyl-octahydropyrrolo[3,4-c]pyrrolyl)phenyl)-1H-1,2,4-triazole-3,5-diamine]: less than 1000 nM; `CN1CCN(c2ccc(Nc3nc(N)n(-c4cc5c(nn4)-c4ccccc4CCC5)n3)cn2)CC1` [Compound 27, 1-(6,7-dihydro-5H-benzo[6,7]cyclohepta[1,2-c]pyridazin-3-yl)-N^3-(6-(4-methylpiperazin-1-yl)pyridin-3-yl)-1H-1,2,4-triazole-3,5-diamine]: less than 1000 nM; `Nc1nc(Nc2ccc(N3CCN(C4CCCCC4)CC3)c(F)c2)nn1-c1cc2c(nn1)-c1cc(F)ccc1CCC2` [Compound 55, 1-(6,7-dihydro-5H-10-fluorobenzo[6,7]cyclo-hepta[1,2-c]pyridazin-3-yl)-N^3-(3-fluoro-4-(4-(cyclohexyl)piperazin-1-yl)phenyl)-1H-1,2,4-triazole-3,5-diamine]: 10000 to 20000 nM. For the compound `CN1CCN(c2ccc(Nc3nc(N)n(-c4cc5c(nn4)-c4ccccc4CCC5)n3)cc2F)CC1c1ccccc1` (stereo not drawn) [Compound 5, 1-(6,7-dihydro-5H-benzo[6,7]cyclohepta[1,2-c]pyridazin-3-yl)-N^3-(3-fluoro-4-(4-methyl-3-phenylpiperazin-1-yl)phenyl)-1H-1,2,4-triazole-3,5-diamine], the IC50 was greater than 20000 nM. `Nc1nc(Nc2ccc(N3CCC(N4CCCC4)CC3)cc2)nn1-c1cc2c(nn1)-c1ccccc1OCC2` [Compound 116, 1-(6,7-dihydro-5H-benzo[2,3]oxepino[4,5-c]pyridazin-3-yl)-N^3-(4-(4-pyrrolidin-1-ylpiperidinyl)phenyl)-1H-1,2,4-triazole-3,5-diamine]: the IC50 lay in the range of 1000 to 10000 nM.

The same assay, now with this note: inhibition of Axl activity; Table 1, compounds of formula (Ia); read-out: IC50.
Consider `C[C@@H]1CCCN1C1CCc2ccc(Nc3nc(N)n(-c4cc5c(nn4)-c4ccccc4CCC5)n3)cc2CC1` (stereo partly drawn) [Compound 220, 1-(6,7-dihydro-5H-benzo[6,7]cyclohepta[1,2-c]pyridazin-3-yl)-N^3-(7-(2-(R)-methylpyrrolidin-1-yl)-6,7,8,9-tetrahydro-5H-benzo[7]annulene-2-yl)-1H-1,2,4-triazole-3,5-diamine], for which the IC50 is less than 1000 nM. On the same count and under the same terms, next, `CN1CCN(CC=Cc2ccc(Nc3nc(N)n(-c4cc5c(nn4)-c4ccccc4CCC5)n3)cc2)CC1` [Compound 204, 1-(6,7-dihydro-5H-benzo[6,7]cyclohepta[1,2-c]pyridazin-3-yl)-N^3-(4-(4-methylpiperazin-1-ylprop-1-enyl)phenyl)-1H-1,2,4-triazole-3,5-diamine]: less than 1000 nM; `Nc1nc(Nc2ccc3c(c2)CCC(N2CC[C@H](O)C2)CC3)nn1-c1cc2c(nn1)-c1ccccc1CCC2` (stereo partly drawn) [Compound 221, 1-(6,7-dihydro-5H-benzo[6,7]cyclohepta[1,2-c]pyridazin-3-yl)-N^3-(7-(3-(S)-hydroxypyrrolidin-1-yl)-6,7,8,9-tetrahydro-5H-benzo[7]annulene-2-yl)-1H-1,2,4-triazole-3,5-diamine]: less than 1000 nM. For `Nc1nc(Nc2ccc3c(c2)CCC(N2CCC(CN4CCCCC4)CC2)CC3)nn1-c1cc2c(nn1)-c1ccccc1CCC2` (stereo not drawn) [Compound 233, 1-(6,7-dihydro-5H-benzo[6,7]cyclohepta[1,2-c]pyridazin-3-yl)-N^3-(7-(4-(piperidin-1-ylmethyl)piperidin-1-yl)-6,7,8,9-tetrahydro-5H-benzo[7]annulene-2-yl)-1H-1,2,4-triazole-3,5-diamine], the IC50 is less than 1000 nM. Turning to `CN1CCN(C2CCN(c3ccc(Nc4nc(N)n(-c5cc6c(nn5)-c5ccccc5OC65CCCC5)n4)cc3F)CC2)CC1` [Compound 175, 1-(spiro[chromeno[4,3-c]pyridazine-5,1′-cyclopentane]-3-yl)-N^3-(3-fluoro-4-(4-(4-methylpiperazin-1-yl)piperidin-1-yl)phenyl)-1H-1,2,4-triazole-3,5-diamine], the IC50 fell in the range of 10000 to 20000 nM. As for `Cc1cc(Nc2nc(N)n(-c3cc4c(nn3)-c3ccccc3CCC4)n2)cnc1N1CCC(N2CCCC2)CC1` [Compound 136, 1-(6,7-dihydro-5H-benzo[6,7]cyclohepta[1,2-c]pyridazin-3-yl)-N^3-(6-(4-(pyrrolidin-1-yl)piperidin-1-yl)-5-methylpyridin-3-yl)-1H-1,2,4-triazole-3,5-diamine], the IC50 was less than 1000 nM.
